Data reported in patent US9309221B2, “1-substituted indazole derivative” (Dainippon Sumitomo Pharma Co., Ltd., priority 2012, dated 2016).

These compounds were tested against T1, human α7 nAChR (Homo sapiens, UniProt P36544) (assay: Evaluation of PAM activity with human α7 nACh receptor stably expressing cells (aequorin luminescence, FDSS7000)). Details: ratio of RLU (Max-Min) of test wells to control wells, ACh at EC20.
T1 construct: expressed in transfected cells; host or cells: GH4C1 cells (rat pituitary, ATCC CCL-82.2)
T1 sequence (P36544 23-502): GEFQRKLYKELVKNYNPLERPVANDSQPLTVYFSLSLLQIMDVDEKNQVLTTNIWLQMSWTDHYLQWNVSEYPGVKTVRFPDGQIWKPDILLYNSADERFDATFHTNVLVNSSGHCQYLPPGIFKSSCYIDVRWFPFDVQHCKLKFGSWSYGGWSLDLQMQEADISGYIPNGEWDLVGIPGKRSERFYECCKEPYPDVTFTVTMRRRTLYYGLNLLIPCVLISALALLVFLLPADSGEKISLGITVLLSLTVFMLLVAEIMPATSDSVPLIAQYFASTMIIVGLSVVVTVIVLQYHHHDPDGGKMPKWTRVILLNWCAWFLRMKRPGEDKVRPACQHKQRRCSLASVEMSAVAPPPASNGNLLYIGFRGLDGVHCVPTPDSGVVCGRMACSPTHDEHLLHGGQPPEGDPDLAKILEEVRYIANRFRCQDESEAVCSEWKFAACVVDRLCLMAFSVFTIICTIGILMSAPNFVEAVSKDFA
Assay type: cell-based
Source text: Evaluation of PAM Activity with Human α7 nACh Receptor Stably Expressing Cells
(1) Human α7 nAChR stably expressing cells
Human α7 nAChR stably expressing cells were generated and cultured. In detail, GH4C1 cells derived from rat pituitary (cat#CCL-82.2, ATCC, USA) were used as a host cell. PcDNA3.1Zeo vector containing a nucleotide sequence encoding a protein GenBank BAC81731 and pcDNA3.1 vector containing human α7 nAChR gene (cat#V790-20, invitrogen, Carlsbad, Calif., USA) were transfected to the cells to give aequorins and human α7 nAChR stably expressing cells respectively. The aequorins and human α7 nAChR stably expressing cells were screened with Zeocin (cat#R25001, invitrogen, Carlsbad, Calif., USA) and Geneticin (cat#10131-027, invitrogen, Carlsbad, Calif., USA) respectively.
The cells were cultured in F-10 Nutrient Mixture (Ham) medium (cat#11550-043, invitrogen, Carlsbad, Calif., USA) containing 2.5% fetal bovine serum (cat#2917354, ICN Biomedicals, Inc, USA), 15% inactivated horse serum (cat#26050-088, invitrogen, Carlsbad, Calif., USA), 1 μg/mL Geneticin, and 5 μg/mL Puromycin (cat#14861-84, invitrogen, Carlsbad, Calif., USA), in a Collagen Type 1-coated dish (cat#4030-010, iwaki, Tokyo, Japan). During the culture, the medium was replaced with fresh medium in every 2 to 3 days, and the cells were treated with TrypLE Express (cat#45604-021, invitrogen, Carlsbad, Calif., USA) to collect them in every 7 days. Thus, the cells were subcultured.
7 Days after subculturing, the cells were treated with TrypLE Express to collect them when they were about 80% confluent. The cells were suspended in a reaction medium containing Hanks (cat#14065-056, invitrogen, Carlsbad, Calif., USA)/20 mmol/L Hepes (cat#15630-080, invitrogen, Carlsbad, Calif., USA), Buffer (pH 7.4), F-10 Nutrient Mixture (Ham), and 0.1 mg/mL Geneticin, and the suspension was seeded in a 384-well plate (cat#781090, Greiner, Germany) at 20000 cells/25 μL per well.
On the next day after seeding, Viviren (cat#E649X, Promega, Madison, Wis., USA) was added to the medium so that the final concentration could be 4 μmol/L (15 μL/well). The plates were centrifuged and then placed in the dark for 4 hours at room temperature.
(2) Preparation of the Test Samples
Each of the test compounds was dissolved in DMSO to prepare each test sample at a concentration of 1000-fold the final concentration. To the solution was added Hanks/20 mM HEPES/0.2% BSA (cat#A3803, Sigma, St. Louis, Mo., USA), and the concentration was adjusted to 6-fold the final concentration.
(3) Evaluation of PAM Activity
FDSS7000 (Hamamatsu Photonics) was used to detect the luminescence signal evoked by α7 nAChR stimulation. The cells and a luminescent substrate were put on a plate, and the test sample was added thereto. […] After the addition of ACh, the luminescence signal (the central wavelength: 465 nm) was measured for 138 seconds to calculate RLU (Max-Min). The ratio of the RLU (Max-Min) of the test-compound-containing wells to that of the control wells was defined as PAM activity.
With `CCOc1ccc2c(cnn2C2CCN(C(=O)NC3CCCC3)CC2)c1` [Example 17] the “PAM activity for α7 nAChR (in words)” value was “stronger PAM activity than others”.
In the case of `Cc1ccc2c(cnn2C2CCN(C(=O)NC3CCC(F)(F)CC3)CC2)c1` [Example 13, N-(4,4-difluorocyclohexyl)-4-(5-methyl-1H-indazol-1-yl)piperidine-1-carboxamide], the “PAM activity for α7 nAChR (in words)” value is reported as “stronger PAM activity than others”.
`CCc1ccc2c(cnn2[C@H]2CC[C@@H](NC(=O)C3CCCCC3)CC2)c1` [Example 119] was tested, and the “PAM activity for α7 nAChR (in words)” value was “stronger PAM activity than others”.
In the case of `COCC1CCC(NC(=O)N2CCC(n3ncc4cc(C)ccc43)CC2)CC1` (centres unmarked) [Example 220], the “PAM activity for α7 nAChR (in words)” value is reported as “stronger PAM activity than others”.
`CCc1ccc2c(cnn2C2CCN(C(=O)NC3CCCC3)CC2)c1` [Example 20] was tested, and the “PAM activity for α7 nAChR (in words)” value was “stronger PAM activity than others”.
In the case of `COc1ccc2c(cnn2C2CCN(C(=O)NC3CCCCC3)CC2)c1` [Example 40], the “PAM activity for α7 nAChR (in words)” value is reported as “stronger PAM activity than others”.
With `COc1ccc2c(cnn2C2CCN(C(=O)NC3CCC(F)(F)CC3)CC2)c1` [Example 41, N-(4,4-difluorocyclohexyl)-4-(5-methoxy-1H-indazol-1-yl)piperidine-1-carboxamide] the “PAM activity for α7 nAChR (in words)” value was “stronger PAM activity than others”.
`CCc1ccc2c(cnn2[C@H]2CC[C@@H](NC(=O)C3CCC(F)(F)CC3)CC2)c1` [Example 4, N-(cis-4-(5-ethyl-1H-indazol-1-yl)cyclohexyl)-4,4-difluorocyclohexanecarboxamide] was tested, and the “PAM activity for α7 nAChR (in words)” value was “stronger PAM activity than others”.
With `CCOc1ccc2c(cnn2C2CCN(C(=O)NC3CCCCC3)CC2)c1` [Example 18, N-cyclohexyl-4-(5-ethoxy-1H-indazol-1-yl)piperidine-1-carboxamide] the “PAM activity for α7 nAChR (in words)” value was “stronger PAM activity than others”.

Same assay, conditions: test compound 10 μmol/L; ACh at EC20; ratio of RLU (Max-Min) of test-compound wells to control wells; human α7 nAChR expressing GH4C1 cells
`COCCCc1ccc2c(cnn2C2CCN(C(=O)N[C@H]3CC[C@H](OC)CC3)CC2)c1` [Example 32] was tested, and the “α7PAM (%) @ 10 μmol/L” value was 430%.
In the case of `CCc1ccc2c(cnn2[C@H]2CC[C@@H](NC(=O)NC3CCC(F)(F)CC3)CC2)c1` [Example 5, 1-(4,4-difluorocyclohexyl)-3-(cis-4-(5-ethyl-1H-indazol-1-yl)cyclohexyl)urea], the “α7PAM (%) @ 10 μmol/L” value is reported as 1368%.
`Cc1ccc2c(cnn2C2CCN(C(=O)NC3CCC(F)(F)CC3)CC2)c1` [Example 13, N-(4,4-difluorocyclohexyl)-4-(5-methyl-1H-indazol-1-yl)piperidine-1-carboxamide] was tested, and the “α7PAM (%) @ 10 μmol/L” value was 3399%.
With `COCc1nn(C2CCN(C(=O)NC3CCCCC3)CC2)c2ccc(C)cc12` [Example 68] the “α7PAM (%) @ 10 μmol/L” value was 430%.
With `O=C(NC1CCC(F)(F)CC1)N1CCC(n2ncc3cc(OC4CC4)ccc32)CC1` [Example 249, 4-[5-(cyclopropoxy)-1H-indazol-1-yl]-N-(4,4-difluorocyclohexyl)piperidine-1-carboxamide] the “α7PAM (%) @ 10 μmol/L” value was 1463%.
`Cc1ccc2c(c1)c(C)nn2C1CCN(C(=O)NC2CCC(F)(F)CC2)CC1` [Example 45, N-(4,4-difluorocyclohexyl)-4-(3,5-dimethyl-1H-indazol-1-yl)piperidine-1-carboxamide] was tested, and the “α7PAM (%) @ 10 μmol/L” value was 1576%.
In the case of `O=C(NC1CCOCC1)N1CCC(n2ncc3cc(C(F)(F)F)ccc32)CC1` [Example 297], the “α7PAM (%) @ 10 μmol/L” value is reported as 340%.
`COCc1c(C)ccc2c1cnn2C1CCN(C(=O)NC2CCC(F)(F)CC2)CC1` [Example 213] was tested, and the “α7PAM (%) @ 10 μmol/L” value was 800%.
With `Cc1ccc2c(cnn2C2CCN(C(=O)N[C@H]3CCCC3(F)F)CC2)c1` [Example 80, (S)—N-(2,2-difluorocyclopentyl)-4-(5-methyl-1H-indazol-1-yl)piperidine-1-carboxamide] the “α7PAM (%) @ 10 μmol/L” value was 1033%.
With `O=C(NC1CCOCC1)N1CCC(n2ncc3c(OC(F)(F)F)cccc32)CC1` [Example 304] the “α7PAM (%) @ 10 μmol/L” value was 380%.
`O=C(Nc1ccc(C(F)(F)F)nc1)N1CCC(n2ncc3cc(C4CC4)ccc32)CC1` [Example 187] was tested, and the “α7PAM (%) @ 10 μmol/L” value was 220%.
For `COC1CCC(NC(=O)N2CCC(n3ncc4c(Br)cccc43)CC2)CC1` (centres unmarked) [Example 98], the “α7PAM (%) @ 10 μmol/L” value was 89%.
`CCc1ccc2c(cnn2C2CCN(C(=O)N[C@H]3CC[C@H](OC)CC3)CC2)c1` [Example 16, 4-(5-ethyl-1H-indazol-1-yl)-N-(trans-4-methoxycyclohexyl)piperidine-1-carboxamide] was tested, and the “α7PAM (%) @ 10 μmol/L” value was 1764%.
`CCO[C@H]1CC[C@H](NC(=O)N2CCC(n3ncc4cc(C)ccc43)CC2)CC1` [Example 90, N-(trans-4-ethoxycyclohexyl)-4-(5-methyl-1H-indazol-1-yl)piperidine-1-carboxamide] was tested, and the “α7PAM (%) @ 10 μmol/L” value was 1467%.
With `CCCc1ccc2c(cnn2C2CCN(C(=O)NC3CCC(OC)CC3)CC2)c1` (centres unmarked) [Example 76] the “α7PAM (%) @ 10 μmol/L” value was 420%.
In the case of `CCOc1ccc2c(cnn2C2CCN(C(=O)NC3CCC(F)(F)CC3)CC2)c1` [Example 27, N-(4,4-difluorocyclohexyl)-4-(5-ethoxy-1H-indazol-1-yl)piperidine-1-carboxamide], the “α7PAM (%) @ 10 μmol/L” value is reported as 1673%.
In the case of `Cc1ccc2c(cnn2C2CCN(C(=O)N[C@H]3CCCCC3(F)F)CC2)c1` [Example 79, (S)—N-(2,2-difluorocyclohexyl)-4-(5-methyl-1H-indazol-1-yl)piperidine-1-carboxamide], the “α7PAM (%) @ 10 μmol/L” value is reported as 1064%.
In the case of `CCc1ccc2c(cnn2C2CCN(C(=O)NC3CCOCC3)CC2)c1OC` [Example 275, 4-(5-ethyl-4-methoxy-1H-indazol-1-yl)-N-(tetrahydro-2H-pyran-4-yl)piperidine-1-carboxamide], the “α7PAM (%) @ 10 μmol/L” value is reported as 1093%.
With `O=C(C1CCOCC1)N1CCC(n2ncc3cc(F)ccc32)CC1` [Example 104] the “α7PAM (%) @ 10 μmol/L” value was 190%.
With `Cc1ccc2c(cnn2C2CCN(C(=O)NC3CCC(OCC(F)(F)F)CC3)CC2)c1` (centres unmarked) [Example 83] the “α7PAM (%) @ 10 μmol/L” value was 420%.
In the case of `O=C(NC1CCC(F)(F)CC1)N1CCC(n2ncc3c(OC(F)F)cccc32)CC1` [Example 201], the “α7PAM (%) @ 10 μmol/L” value is reported as 370%.
`CCc1ccc2c(cnn2C2CCN(C(=O)N[C@H]3CC[C@H](OC)CC3)CC2)c1OC` [Example 255, 4-(5-ethyl-4-methoxy-1H-indazol-1-yl)-N-(trans-4-methoxycyclohexyl)piperidine-1-carboxamide] was tested, and the “α7PAM (%) @ 10 μmol/L” value was 1096%.
In the case of `CCCc1ccc2c(cnn2C2CCN(C(=O)NC3CCOCC3)CC2)c1` [Example 15, 4-(5-propyl-1H-indazol-1-yl)-N-(tetrahydro-2H-pyran-4-yl)piperidine-1-carboxamide], the “α7PAM (%) @ 10 μmol/L” value is reported as 1025%.
`COc1c(C(F)(F)F)ccc2c1cnn2C1CCN(C(=O)NC2CCC(OC)CC2)CC1` (centres unmarked) [Example 317] was tested, and the “α7PAM (%) @ 10 μmol/L” value was 360%.
In the case of `CCOc1cccc2c1cnn2C1CCN(C(=O)N[C@H]2CC[C@@H](OC)CC2)CC1` [Example 184], the “α7PAM (%) @ 10 μmol/L” value is reported as 200%.
With `COc1ccc2c(cnn2C2CCN(C(=O)NC3CCC(F)(F)CC3)CC2)c1` [Example 41, N-(4,4-difluorocyclohexyl)-4-(5-methoxy-1H-indazol-1-yl)piperidine-1-carboxamide] the “α7PAM (%) @ 10 μmol/L” value was 3749%.
`CCc1ccc2c(cnn2C2CCN(C(=O)C3CCOCC3)CC2)c1` [Example 111] was tested, and the “α7PAM (%) @ 10 μmol/L” value was 410%.
With `CCc1ccc2c(cnn2[C@H]2CC[C@@H](NC(=O)C3CCC(F)(F)CC3)CC2)c1` [Example 4, N-(cis-4-(5-ethyl-1H-indazol-1-yl)cyclohexyl)-4,4-difluorocyclohexanecarboxamide] the “α7PAM (%) @ 10 μmol/L” value was 2344%.
In the case of `CO[C@H]1CC[C@H](NC(=O)N2CCC(n3ncc4cc(OC(F)F)ccc43)CC2)CC1` [Example 291, 4-[5-(difluoromethoxy)-1H-indazol-1-yl]-N-(trans-4-methoxycyclohexyl)piperidine-1-carboxamide], the “α7PAM (%) @ 10 μmol/L” value is reported as 1433%.
In the case of `CCc1cccc2c1cnn2C1CCN(C(=O)NC2CCC(F)(F)CC2)CC1` [Example 64, N-(4,4-difluorocyclohexyl)-4-(4-ethyl-1H-indazol-1-yl)piperidine-1-carboxamide], the “α7PAM (%) @ 10 μmol/L” value is reported as 1133%.
For `CO[C@H]1CC[C@H](NC(=O)N2CCC(n3ncc4cc(-c5ccc(F)cc5)ccc43)CC2)CC1` [Example 155], the “α7PAM (%) @ 10 μmol/L” value was 210%.
`CCOc1ccc2c(cnn2C2CCN(C(=O)NC3CCCCC3)CC2)c1` [Example 18, N-cyclohexyl-4-(5-ethoxy-1H-indazol-1-yl)piperidine-1-carboxamide] was tested, and the “α7PAM (%) @ 10 μmol/L” value was 6779%.
